Data reported in PubChem BioAssay (NCI).
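Grown in 96-well plates, cells were treated for 48 hours with each compound at five concentrations. Insufficient inhibition: endpoint recorded as highest concentration tested. The concentration for 50% growth inhibition is given as GI50. TGI: concentration producing complete growth inhibition.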

Legend:
Assay in all cases: NCI anticancer screen, dose series, 48 h
[1] = test system: A549 NSCLC
[2] = test system: SR leukemia
[3] = test system: HCC-2998 colon
[4] = test system: HCT-116 colon
[5] = test system: SF-539 CNS
[6] = test system: PC-3 prostate
[7] = test system: HOP-62 NSCLC
[8] = test system: SF-295 CNS
[9] = test system: BT-549 breast
[10] = test system: HOP-92 NSCLC
[11] = test system: SK-MEL-2 melanoma
[12] = test system: LOX IMVI melanoma
[13] = test system: KM12 colon
[14] = test system: K-562 leukemia
[15] = test system: HS 578T breast
[16] = test system: MCF7 breast
[17] = test system: HL-60(TB) leukemia
[18] = test system: SW-620 colon
[19] = test system: NCI-H460 lung
[20] = test system: OVCAR-8 ovarian
[21] = test system: A498 renal
[22] = test system: SNB-75 CNS
[23] = test system: EKVX NSCLC
[24] = test system: MALME-3M melanoma
[25] = test system: OVCAR-3 ovarian
[26] = test system: RXF 393 renal
[27] = test system: SNB-19 CNS
[28] = test system: UO-31 renal
[29] = test system: SF-268 CNS
[30] = test system: SN12C renal
[31] = test system: OVCAR-5 ovarian
[32] = test system: CAKI-1 renal
[33] = test system: DU-145 prostate
[34] = test system: SK-OV-3 ovarian
[35] = test system: SK-MEL-28 melanoma
[36] = test system: OVCAR-4 ovarian
[37] = test system: ACHN renal
[38] = test system: SK-MEL-5 melanoma
[39] = test system: 786-0 renal
[40] = test system: U251 CNS
[41] = test system: NCI/ADR-RES ovarian
[42] = test system: UACC-257 melanoma
[43] = test system: UACC-62 melanoma
[44] = test system: NCI-H23 lung
[45] = test system: T-47D breast
[46] = test system: CCRF-CEM leukemia
[47] = test system: MDA-MB-231 breast
[48] = test system: MDA-MB-435
[49] = test system: TK-10 renal
[50] = test system: RPMI-8226 leukemia
[51] = test system: MOLT-4 leukemia
[52] = test system: HT29 colon
[53] = test system: NCI-H226 lung
[54] = test system: NCI-H522 lung
[55] = test system: M14 melanoma
[56] = test system: HCT-15 colon
[57] = test system: COLO 205 colon
[58] = test system: IGROV1 ovarian

`O=C(/C=C/c1cccc([N+](=O)[O-])c1)c1ccc(O)c(CN2CCN(c3cc4c(cc3F)c(=O)c(C(=O)O)cn4C3CC3)CC2)c1` gave a GI50 [1] of 3.1 µM, a TGI [1] of 17.2 µM and a GI50 [2] of 0.398 µM. It also gave a TGI [2] of 53.2 µM, a GI50 [3] of 1.92 µM and a TGI [3] of 3.43 µM. For the same compound, the GI50 [4] was 0.494 µM, the TGI [4] was 1.81 µM and the GI50 [5] was 1.19 µM. For the same compound, the TGI [5] was 2.47 µM, the GI50 [6] was 1.85 µM and the TGI [6] was 5.37 µM. The GI50 [7] was 3.47 µM, the TGI [7] was 16.8 µM and the GI50 [8] was 1.88 µM. For the same compound, the TGI [8] was 3.9 µM, the GI50 [9] was 1.54 µM and the TGI [9] was 3.31 µM. The GI50 [10] was 2.17 µM, the TGI [10] was 9.97 µM and the GI50 [11] was 2.35 µM. For the same compound, the TGI [11] was 5.17 µM, the GI50 [12] was 0.364 µM and the TGI [12] was 1.41 µM. The GI50 [13] was 1.33 µM, the TGI [13] was 3.4 µM and the GI50 [14] was 0.404 µM. It also gave a TGI [14] greater than 100 µM, a GI50 [15] of 2.43 µM and a TGI [15] of 7.11 µM. The GI50 [16] was 0.332 µM, the TGI [16] was 1.44 µM and the GI50 [17] was 2.24 µM. For the same compound, the TGI [17] was 6.58 µM, the GI50 [18] was 1.1 µM and the TGI [18] was 3.65 µM. The GI50 [19] was 3.43 µM, the TGI [19] was 19.3 µM and the GI50 [20] was 2.52 µM. For the same compound, the TGI [20] was 8.77 µM, the GI50 [21] was 1.35 µM and the TGI [21] was 2.84 µM. It also gave a GI50 [22] of 1.22 µM, a TGI [22] of 2.51 µM and a GI50 [23] of 1.71 µM. It also gave a TGI [23] of 3.32 µM, a GI50 [24] of 1.93 µM and a TGI [24] of 4.25 µM. It also gave a GI50 [25] of 1.77 µM, a TGI [25] of 3.41 µM and a GI50 [26] of 1.51 µM. For the same compound, the TGI [26] was 2.99 µM, the GI50 [27] was 1.34 µM and the TGI [27] was 2.79 µM. It also gave a GI50 [28] of 1.29 µM, a TGI [28] of 2.67 µM and a GI50 [29] of 2.15 µM. For the same compound, the TGI [29] was 5.58 µM, the GI50 [30] was 1.75 µM and the TGI [30] was 3.45 µM. For the same compound, the GI50 [31] was 1.75 µM, the TGI [31] was 3.35 µM and the GI50 [32] was 1.63 µM. The TGI [32] was 3.24 µM, the GI50 [33] was 1.41 µM and the TGI [33] was 2.74 µM. For the same compound, the GI50 [34] was 5 µM, the TGI [34] was greater than 100 µM and the GI50 [35] was 1.75 µM. The TGI [35] was 3.2 µM, the GI50 [36] was 1.61 µM and the TGI [36] was 3.07 µM. It also gave a GI50 [37] of 1.4 µM, a TGI [37] of 2.7 µM and a GI50 [38] of 1.7 µM. It also gave a TGI [38] of 3.25 µM, a GI50 [39] of 1.57 µM and a TGI [39] of 3 µM. It also gave a GI50 [40] of 1.17 µM, a TGI [40] of 2.62 µM and a GI50 [41] of 2.85 µM. The TGI [41] was 9.34 µM, the GI50 [42] was 1.69 µM and the TGI [42] was 3.35 µM. It also gave a GI50 [43] of 1.66 µM, a TGI [43] of 3.45 µM and a GI50 [44] of 1.81 µM. The TGI [44] was 3.83 µM, the GI50 [45] was 1.85 µM and the TGI [45] was 4.99 µM. It also gave a GI50 [46] of 1.6 µM, a TGI [46] of 10.8 µM and a GI50 [47] of 1.89 µM. For the same compound, the TGI [47] was 4.02 µM, the GI50 [48] was 1.67 µM and the TGI [48] was 3.21 µM. It also gave a GI50 [49] of 2.1 µM, a TGI [49] of 5.59 µM and a GI50 [50] of 0.418 µM. The TGI [50] was 2.82 µM, the GI50 [51] was 2.25 µM and the TGI [51] was 8.41 µM. The GI50 [52] was 2.44 µM, the TGI [52] was 6.25 µM and the GI50 [53] was 3.49 µM. The TGI [53] was 15.2 µM.

In the case of `O=c1oc(-c2ccccc2)cc2cccc(O)c12`, the GI50 [1] is reported as 24.7 µM, the TGI [1] is reported as greater than 64.6 µM and the GI50 [2] is reported as 43.5 µM. The TGI [2] was greater than 100 µM, the GI50 [4] was 19.8 µM and the TGI [4] was 45.2 µM. It also gave a GI50 [5] of 0.927 µM, a TGI [5] of 5.21 µM and a GI50 [6] of 40.6 µM. The TGI [6] was greater than 100 µM, the GI50 [54] was 49.9 µM and the TGI [54] was greater than 100 µM. For the same compound, the GI50 [7] was 19.5 µM, the TGI [7] was 40.9 µM and the GI50 [8] was 28.3 µM. The TGI [8] was greater than 83.9 µM, the GI50 [9] was 17.5 µM and the TGI [9] was 59.1 µM. The GI50 [10] was 16.8 µM, the TGI [10] was 61.6 µM and the GI50 [11] was greater than 100 µM. The TGI [11] was greater than 100 µM, the GI50 [12] was 29.7 µM and the TGI [12] was greater than 100 µM. It also gave a GI50 [13] of 20.8 µM, a TGI [13] greater than 69.3 µM and a GI50 [14] greater than 67.3 µM. The TGI [14] was greater than 100 µM, the GI50 [15] was 23.8 µM and the TGI [15] was 54.7 µM. The GI50 [16] was greater than 28 µM, the TGI [16] was greater than 100 µM and the GI50 [17] was 63.5 µM. For the same compound, the TGI [17] was greater than 100 µM, the GI50 [18] was 58 µM and the TGI [18] was greater than 100 µM. For the same compound, the GI50 [19] was 29 µM, the TGI [19] was greater than 100 µM and the GI50 [20] was 23.9 µM. It also gave a TGI [20] of 52.4 µM, a GI50 [21] of 21 µM and a TGI [21] of 48 µM. For the same compound, the GI50 [22] was 24.4 µM, the TGI [22] was greater than 62.6 µM and the GI50 [23] was 4.22 µM. For the same compound, the TGI [23] was greater than 40.6 µM, the GI50 [24] was 69.4 µM and the TGI [24] was greater than 100 µM. For the same compound, the GI50 [25] was 25.2 µM, the TGI [25] was 85.8 µM and the GI50 [55] was greater than 80.9 µM. It also gave a TGI [55] greater than 100 µM, a GI50 [26] of 24.8 µM and a TGI [26] greater than 70.9 µM. For the same compound, the GI50 [27] was 30.6 µM, the TGI [27] was greater than 100 µM and the GI50 [56] was 19.6 µM. The TGI [56] was greater than 100 µM, the GI50 [28] was 72 µM and the TGI [28] was greater than 100 µM. For the same compound, the GI50 [29] was 30.1 µM, the TGI [29] was greater than 89.9 µM and the GI50 [30] was 19.4 µM. The TGI [30] was 51.2 µM, the GI50 [31] was 55.3 µM and the TGI [31] was greater than 100 µM. For the same compound, the GI50 [32] was 37.3 µM, the TGI [32] was greater than 81.7 µM and the GI50 [33] was greater than 48.7 µM. For the same compound, the TGI [33] was greater than 100 µM, the GI50 [34] was 26.8 µM and the TGI [34] was 68.6 µM. For the same compound, the GI50 [35] was greater than 100 µM, the TGI [35] was greater than 100 µM and the GI50 [36] was greater than 100 µM. For the same compound, the TGI [36] was greater than 100 µM, the GI50 [37] was 25.9 µM and the TGI [37] was greater than 73.1 µM. It also gave a GI50 [38] of 24 µM, a TGI [38] greater than 100 µM and a GI50 [39] of 28.7 µM. The TGI [39] was greater than 76.9 µM, the GI50 [40] was 18 µM and the TGI [40] was 35.1 µM. The GI50 [41] was 33.3 µM, the TGI [41] was greater than 74.3 µM and the GI50 [42] was greater than 71.9 µM. The TGI [42] was greater than 100 µM, the GI50 [43] was 24.5 µM and the TGI [43] was greater than 64.3 µM. It also gave a GI50 [44] of 19.6 µM, a TGI [44] of 61.5 µM and a GI50 [45] of 13.6 µM. The TGI [45] was greater than 100 µM, the GI50 [46] was greater than 100 µM and the TGI [46] was greater than 100 µM. For the same compound, the GI50 [47] was 29.2 µM, the TGI [47] was greater than 85.7 µM and the GI50 [48] was 69 µM. It also gave a TGI [48] greater than 100 µM, a GI50 [49] of 9.45 µM and a TGI [49] of 39.8 µM. For the same compound, the GI50 [50] was 34 µM, the TGI [50] was greater than 100 µM and the GI50 [51] was 66.3 µM. The TGI [51] was greater than 100 µM, the GI50 [57] was greater than 100 µM and the TGI [57] was greater than 100 µM. It also gave a GI50 [52] greater than 56.9 µM, a TGI [52] greater than 100 µM and a GI50 [58] of 23 µM. It also gave a TGI [58] greater than 100 µM, a GI50 [53] of 19.4 µM and a TGI [53] of 51 µM.
